What was measured:
[1] = system: established cell lines and primary neuronal cultures; details: cited from earlier work
cells [2] = test: Transfection efficiency: IL-2 expressed by cells given HGD/IL-2 plasmid compositions; format: cell-based; details: for IL-2 expression by cells: 0.2 μg IL-2 plasmid, cholesterol or DOPE co-lipid, 48 hours
Procedure: HGDs of the invention formed DNA/HGD complexes that efficiently delivered DNA plasmids to cells. The transfection efficiency was measured after compositions comprising HGDs of the invention, 0.2 μg of DNA plasmids comprising a gene encoding IL-2, and either cholesterol or DOPE as a co-lipid were incubated with cells for 48 hours. The amount of IL-2 expressed by cells administered the compositions was quantified using by an assay disclosed in U.S. application Ser. No. 60/039,709, Raiston et al., “IL-2 Gene Expression and Delivery Systems and Uses,” filed Feb. 10, 1997, incorportated herein by reference in its entirety including any figures, tables, and drawings.

cells [3] = test: Cell toxicity by total cellular protein synthesis (Bio-Rad Protein Assay) or cell proliferation (XTT); format: cell-based
Text: Compositions comprising HGDs of the invention, plasmid DNA, and a co-lipid such as DOPE or cholesterol were not appreciably toxic to cells. Toxicity measurements were based upon total cellular protein synthesis (Bio-Rad Protein Assay) or cell proliferation (Cell-Proliferation Kit-XTT, Boehringer Mannheim).

tumors = test: In vivo anti-tumor efficacy, intratumoral IL-2 plasmid compositions; set-up: species or system mice; details: for growth of tumors in mice: compositions with IL-2 plasmid DNA and DOPE, given directly into the tumor; for size of tumors, average: with DNA and DOPE; for size of tumors, average / reduction of growth rates of tumors: 1:2 -/+ charge ratio; for reduction of growth rates of tumors: with IL-2 plasmid DNA and DOPE
Text: Compositions comprising HGDs of the invention, plasmid DNA comprising an IL-2 gene, and DOPE efficaciously retarded the growth of tumors in mice. These model-tumor studies involved implanting a tumor into mice, administering a composition of the invention directly into the tumor, and monitoring the growth of tumors in the mice. A protocol for such a procedure is taught in U.S. application Ser. No. 60/039,709, Raiston et al., “IL-2 Gene Expression and Delivery Systems and Uses,” filed Feb. 10, 1997, incorportated herein by reference in its entirety including any figures, tables, and drawings.

SCCVII tumors = test: CAT reporter gene expression after injection of lipid/DNA complexes into tumors; format: in vivo; details: complex with CAT DNA plasmid injected into SCCVII tumors; 10% lactose
Procedure: A variety of HGD/DNA complexes were injected into SCCVII tumors. […] Other lipophilic molecules included DOTMA complexed with cholesterol, DOTIM complexed with DOPE and cholesterol, MMCE complexed with DOPE and cholesterol and DiP-PE, EPMC complexed with DOPE and cholesterol. All complexes comprised 10% lactose.

## CCCCCCCCCCCCCCCCCCN(CCCCCCCCCCCCCCCCCC)C(=O)CNC(=O)C(CCCNCCCN)NCCCN (stereo not drawn) [DOGS]
[1]
  transfection efficiency relative to calcium phosphate: more efficiently than calcium phosphate by at least two orders of magnitude

## CCCCCCCCCCCCCCCC(=O)OCC(COP(=O)(O)OCCNC(=O)C(CCCNCCCN)NCCCN)OC(=O)CCCCCCCCCCCCCCC (stereo not drawn) [DPPES]
[1]
  transfection efficiency relative to calcium phosphate: more efficiently than calcium phosphate by at least two orders of magnitude

## CCCCCCCC/C=C\CCCCCCCCO[C@@H]1OC(CO)[C@@H](O)C(O)C1N (stereo partly drawn) [MOG, 1-mono-oleyl-glucosamine]
Cells [2]; 1:3 charge ratio
  IL-2 expression compared with DOTMA liposomes: as large as the amount of IL-2 expressed by cells administered liposomes comprising an efficient delivery lipid, DOTMA
Cells [2]; -/+ charge ratio 1:0.5
  IL-2 expression by cells: not significantly expressed
Cells [2]; -/+ charge ratio 1:3
  IL-2 expression by cells: significantly expressed
Cells [3]; MOG composition contains DOPE, compared with LipofectAMINE composition
  expression and recovery of total protein, of normal protein levels: more than 75%
Cells [3]
  health of cells compared with LipofectAMINE liposome compositions: healthier
tumors
  growth of tumors in mice: significantly reduced the growth of tumors
tumors; nine days, untreated 600
  size of tumors, average: less than 400 cubic millimeters
tumors; after nine days
  reduction of growth rates of tumors: more than 30%
SCCVII tumors
  expression of the CAT reporter gene: highest expression of the CAT reporter gene of any of the lipophilic molecule/DNA complexes tested

## CCCCCCCCCCCCCCCCO[C@@H]1OC(CO)[C@@H](O)C(O)C1N (stereo partly drawn) [MPG, 1-mono-palmityl-glucosamine]
Cells [3]
  health of cells compared with LipofectAMINE liposome compositions: healthier
tumors
  growth of tumors in mice: significantly reduced the growth of tumors
tumors; thirteen days, untreated approximately 1600
  size of tumors, average: less than 1200 cubic millimeters
tumors; after thirteen days
  reduction of growth rates of tumors: more than 25%

From patent publication US20020058795A1, “HYDROPHOBIC GLYCOSYLAMINE DERIVATIVES, COMPOSITIONS, AND METHODS FOR USE” (priority 1997, published 2002)
